From the supplement of paper PMC6331611 come the findings set out here.

Molecules are shown by their SMILES. Values after ≈ are worked out from the molar mass of the structure shown. Counter-ions that a name gives are not always drawn.

Assay [1] has as its system Salmonella enterica serovar Typhimurium SL1344.
Assay [2] has the same test system. Put plainly: intracellular MIC (10-fold luminescence reduction); higher = less potent. The note with it: RAW264.7 macrophages.
The subject of the next assay is RAW264.7. Kind of assay: cytotoxicity (LDH release relative to maximum lysis); higher = more toxic. The note with it: 50 µM; 2 h.

With `O=C(O)CCC(=O)OC[C@@H](NC(=O)C(Cl)Cl)[C@H](O)c1ccc([N+](=O)[O-])cc1` [CHLORAMPHENICOL SODIUM SUCCINATE], the MIC (commonly the lowest concentration that inhibits growth of the organism) turned out to be 6.25 µM in assay [1] (LPM pH 5.8), 25 µM in assay [1] (MHB) and 12.5 µM in assay [1] (MOPS glucose minimal medium). In assay [2], the “intracellular MIC” value is not above 0.78 µM. In the assay with RAW264.7, this molecule registered a cytotoxicity of 8.03%.
For `CN(C)[C@@H]1C(O)=C(C(N)=O)C(=O)[C@@]2(O)C(O)=C3C(=O)c4c(O)cccc4[C@@](C)(O)[C@H]3[C@H](O)[C@@H]12` [OXYTETRACYCLINE], the minimal inhibitory concentration (MIC) in assay [1] (LPM pH 5.8) was not above 0.78 µM; in assay [1] (MHB), 6.25 µM (≈ 2.88 µg/mL); in assay [1] (MOPS glucose minimal medium), 12.5 µM (≈ 5.76 µg/mL). In addition, the “intracellular MIC” value in assay [2] turned out to be 6.25 µM. In addition, in the assay on RAW264.7, the cytotoxicity was found to be 15.7%.
Regarding `Oc1c(I)cc(Cl)c2cccnc12` [CLIOQUINOL], the MIC is not above 0.78 µM in assay [1] (LPM pH 5.8), 50 µM (≈ 15.3 µg/mL) in assay [1] (MHB) and 50 µM (≈ 15.3 µg/mL) in assay [1] (MOPS glucose minimal medium). Besides, the “intracellular MIC” value in assay [2] was more than 50 µM. For the same molecule, the cytotoxicity in the assay on RAW264.7 came out at 20%.
Turning to `CC1CCc2c(N3CCC(O)CC3)c(F)cc3c(=O)c(C(=O)O)cn1c23` (stereo not given) [NADIFLOXACIN], the minimal inhibitory concentration (MIC) in assay [1] (LPM pH 5.8) was not above 0.78 µM; in assay [1] (MHB), 3.13 µM (≈ 1.13 µg/mL); in assay [1] (MOPS glucose minimal medium), 1.56 µM (≈ 0.562 µg/mL). Further, in assay [2], the “intracellular MIC” value was 1.56 µM. The cytotoxicity in the assay with RAW264.7 stood at 12.7%.
As to `O=C(CCCN1CCC(O)(c2ccc(Br)cc2)CC1)c1ccc(F)cc1` [BROMPERIDOL], the minimum inhibitory concentration (MIC) in assay [1] (LPM pH 5.8), in assay [1] (MHB) and in assay [1] (MOPS glucose minimal medium) was more than 50 µM in each case. For the same molecule, the “intracellular MIC” value in assay [2] was not above 0.78 µM. Besides, in the assay on RAW264.7, the cytotoxicity is 15%.
`NC1CCN(c2c(F)cc3c(=O)c(C(=O)O)cn(C4CC4)c3c2Cl)C1` (stereo not given) [CLINAFOXACIN HYDROCHLORIDE]: the MIC in assay [1] (LPM pH 5.8), in assay [1] (MHB) and in assay [1] (MOPS glucose minimal medium) was not above 0.78 µM throughout. For the same molecule, in assay [2], the “intracellular MIC” value was not above 0.78 µM. This molecule also displayed a cytotoxicity in the assay with RAW264.7 of 15.8%.
On to `CO/N=C(\C(=O)N[C@@H]1C(=O)N2C(C(=O)O)=C(CSC(=O)c3ccco3)CS[C@H]12)c1csc(N)n1` [CEFTIOFUR HYDROCHLORIDE], for which the minimal inhibitory concentration (MIC) in assay [1] (LPM pH 5.8), in assay [1] (MHB) and in assay [1] (MOPS glucose minimal medium) was not above 0.78 µM each time. In assay [2], the “intracellular MIC” value was not above 0.78 µM. The molecule also registered a cytotoxicity with RAW264.7 of 15.6%.
In the case of `CNC[C@H](O)c1cccc(O)c1` [PHENYLEPHRINE HYDROCHLORIDE], the minimal inhibitory concentration (MIC) in assay [1] (LPM pH 5.8), in assay [1] (MHB) and in assay [1] (MOPS glucose minimal medium) was more than 50 µM throughout. Moreover, the “intracellular MIC” value in assay [2] is not above 0.78 µM. This molecule yielded a cytotoxicity in the assay on RAW264.7 of 6.89%.
For `CO[C@@]1(NC(=O)C2SC(=C(C(N)=O)C(=O)O)S2)C(=O)N2C(C(=O)O)=C(CSc3nnnn3C)CS[C@@H]21` (stereo not given in full) [CEFOTETAN], the MIC in assay [1] (LPM pH 5.8), in assay [1] (MHB) and in assay [1] (MOPS glucose minimal medium) was not above 0.78 µM in each case. Also, the “intracellular MIC” value in assay [2] was found to be 1.56 µM. In the assay with RAW264.7, this molecule returned a cytotoxicity of 7.79%.
Turning to `C/C(=C\C(=O)OCCCCCCCCC(=O)O)C[C@@H]1OC[C@H](C[C@@H]2O[C@H]2[C@@H](C)[C@H](C)O)[C@@H](O)[C@H]1O` [MUPIROCIN], the values for the MIC in assay [1] (LPM pH 5.8), in assay [1] (MHB) and in assay [1] (MOPS glucose minimal medium) were not above 0.78 µM, more than 50 µM and 25 µM (≈ 12.5 µg/mL), respectively. In assay [2], the “intracellular MIC” value came to 25 µM. Also, in the assay with RAW264.7, the cytotoxicity worked out at 15.4%.
As to `CN(C)[C@@H]1C(O)=C(C(N)=O)C(=O)[C@@]2(O)C(O)=C3C(=O)c4c(O)cccc4[C@@](C)(O)[C@H]3C[C@@H]12` [TETRACYCLINE HYDROCHLORIDE], the figures for the minimum inhibitory concentration (MIC) in assay [1] (LPM pH 5.8), in assay [1] (MHB) and in assay [1] (MOPS glucose minimal medium) were not above 0.78 µM, 12.5 µM and 3.13 µM, respectively. Also, in assay [2], the “intracellular MIC” value was 1.56 µM. For the same molecule, the cytotoxicity in the assay with RAW264.7 stood at 7.01%.
As for `O=S(=O)(O)NC1CCCCC1` [CYCLAMIC ACID], the minimal inhibitory concentration (MIC) in assay [1] (LPM pH 5.8), in assay [1] (MHB) and in assay [1] (MOPS glucose minimal medium) was more than 50 µM each time. For the same molecule, the “intracellular MIC” value in assay [2] is more than 50 µM. The cytotoxicity in the assay on RAW264.7 is 7.97%.
On to `C[C@H]1C[C@@H]2[C@H]([C@@H](O)C[C@@]3(C)[C@H]2CC[C@]3(O)C(=O)CO)[C@@]2(C)C=CC(=O)C=C12` [METHYLPREDNISOLONE], for which the MIC in assay [1] (LPM pH 5.8), in assay [1] (MHB) and in assay [1] (MOPS glucose minimal medium) was more than 50 µM each time. The “intracellular MIC” value in assay [2] was more than 50 µM. Further, the cytotoxicity in the assay with RAW264.7 turned out to be 8.21%.
Consider `Cc1cc(C2CCCCC2)n(O)c(=O)c1` [CICLOPIROX OLAMINE], for which the values for the minimal inhibitory concentration (MIC) in assay [1] (LPM pH 5.8), in assay [1] (MHB) and in assay [1] (MOPS glucose minimal medium) were not above 0.78 µM, more than 50 µM and more than 50 µM, respectively. For the same molecule, the “intracellular MIC” value in assay [2] is more than 50 µM. The cytotoxicity with RAW264.7 was found to be 15.5%.
In the case of `CC[C@H]1OC(=O)[C@H](C)[C@@H](O[C@H]2C[C@@](C)(OC)[C@@H](O)[C@H](C)O2)[C@H](C)[C@@H](O[C@@H]2O[C@H](C)C[C@H](N(C)C)[C@H]2O)[C@](C)(O)C[C@@H](C)CN(C)[C@H](C)[C@@H](O)[C@]1(C)O` [AZITHROMYCIN], the MIC in assay [1] (LPM pH 5.8), in assay [1] (MHB) and in assay [1] (MOPS glucose minimal medium) was not above 0.78 µM each time. In assay [2], the “intracellular MIC” value is not above 0.78 µM. The molecule further registered a cytotoxicity in the assay with RAW264.7 of 21.1%.
